Measurements: patent publication US8946266B2, “Substituted triazole and imidazole derivatives as gamma secretase modulators” (Janssen Pharmaceuticals, Inc., priority 2009, dated 2015)
Read-outs that look alike come from different tables or passages of the source.

What was measured:
Aβ42 = assay: γ-secretase-modulating activity, Method 2: Aβ42 Alphalisa in supernatant of SKNBE2 cells carrying APP 695-wild type (Table 3b); type: cell-based; conditions: overnight
Protocol: (§1) Screening was carried out using SKNBE2 cells carrying the APP 695-wild type, grown in Dulbecco's Modified Eagle's Medium/Nutrient mixture F-12 (DMEM/NUT-mix F-12) (HAM) provided by Invitrogen (cat no. 10371-029) containing 5% Serum/Fe supplemented with 1% non-essential amino acids, 1-glutamine 2 mM, Hepes 15 mM, penicillin 50 U/ml (units/ml) en streptomycin 50 μg/ml. Cells were grown to near confluency.
(§2) The screening was performed using a modification of the assay as described in Citron et al (1997) Nature Medicine 3: 67. Briefly, cells were plated in a 384-well plate at 10^4 cells/well in Ultraculture (Lonza, BE12-725F) supplemented with 1% glutamine (Invitrogen, 25030-024), 1% non-essential amino acid (NEAA), penicillin 50 U/ml en streptomycin 50 μg/ml in the presence of test compound at different test concentrations. The cell/compound mixture was incubated overnight at 37° C., 5% CO2. The next day the media were assayed by two sandwich immuno-assays, for Aβ42 and Aβtotal.
(§3) Aβtotal and Aβ42 concentrations were quantified in the cell supernatant using the Aphalisa technology (Perkin Elmer). Alphalisa is a sandwich assay using biotinylated antibody attached to streptavidin coated donorbeads and antibody conjugated to acceptor beads. In the presence of antigen, the beads come into close proximity. The excitation of the donor beads provokes the release of singlet oxygen molecules that trigger a cascade of energy transfer in the acceptor beads, resulting in light emission. To quantify the amount of Aβ42 in the cell supernatant, monoclonal antibody specific to the C-terminus of Aβ42 (JRF/cAβ42/26) was coupled to the receptor beads and biotinylated antibody specific to the N-terminus of Aβ (JRF/AβN/25) was used to react with the donor beads. To quantify the amount of Aβ total in the cell supernatant, monoclonal antibody specific to the N-terminus of Aβ (JRF/AβN/25) was coupled to the receptor beads and biotinylated antibody specific to the mid region of Aβ (biotinylated 4G8) was used to react with the donor beads.
To obtain the values reported in Table 3b, the data were calculated as percentage of the maximum amount of amyloid Beta 42 measured in the absence of the test compound.
(§4) The sigmoidal dose response curves were analyzed using non-linear regression analysis with percentage of the control plotted against the log concentration of the compound. A 4-parameter equation was used to determine the IC50.
(§5) The IC50 values are shown in Table 3b (Aβtot means Aβtotal).

Aβtotal = assay: γ-secretase-modulating activity, Method 2: Aβtotal Alphalisa in supernatant of SKNBE2 cells carrying APP 695-wild type (Table 3b); type: cell-based; conditions: overnight, read-out: IC50 Aβtot
Protocol: as §1, §2, §3, §4, §5

SMILES	IC50 (Aβ42) [nM]	IC50 (Aβtotal) [nM]	IC50 (Aβ42; Homo sapiens) [nM]	IC50 (Aβtotal; Homo sapiens) [nM]
COc1cc(-c2nc(Nc3ccc(F)cc3C(F)(F)F)n(C(C)C)n2)ccc1-n1cnc(C)c1 [Compound 49]	40	6030	–	–
COc1cc(-c2nc(N(C)c3ccc(F)cc3C(F)(F)F)n(C)n2)ccc1-n1cnc(C)c1 [Compound 50]	110	> 10000	–	–
COc1cc(-c2nc(N[C@@H](C)c3ccc(F)cc3)n(C)n2)ccc1-n1cnc(C)c1 [Compound 51]	324	> 10000	–	–
COc1cc(-c2nc(-c3ccc(F)cc3)nn2C)ccc1-n1cnc(C)c1 [Compound 52]	5750	> 10000	–	–
COc1cc(-c2nc(N(C)c3ccc(F)cc3C(F)(F)F)nn2C)ccc1-n1cnc(C)c1 [Compound 53]	> 10000	> 10000	–	–
COc1cc(-c2nc(-c3ccccc3C(F)(F)F)nn2C)ccc1-n1cnc(C)c1 [Compound 54]	4170	> 10000	–	–
COc1cccc(-c2n[nH]c(-c3ccc(-n4cnc(C)c4)c(OC)c3)n2)c1 [Compound 55]	234	> 10000	–	–
COc1cccc(-c2nc(-c3ccc(-n4cnc(C)c4)c(OC)c3)n(C)n2)c1 [Compound 56]	> 10000	> 10000	–	–
COc1cc(-c2nc(Cc3ccc(F)cc3C(F)(F)F)nn2C)ccc1-n1cnc(C)c1 [Compound 57]	851	> 10000	–	–
COc1cc(-c2nc(-c3ccc(-n4cnc(C)c4)c(OC)c3)n(C)n2)ccc1Cl [Compound 58]	> 10000	> 10000	–	–
COc1cc(-c2nc(/C=C/c3ccc(F)cc3)nn2C)ccc1-n1cnc(C)c1 [Compound 59]	2950	> 10000	–	–
COc1cc(-c2nc(C3(c4ccc(F)cc4)CC3)nn2C)ccc1-n1cnc(C)c1 [Compound 60]	8510	> 10000	–	–
COc1cc(-c2nc(Nc3cc(F)c(F)c(F)c3)nn2C)ccc1-n1cnc(C)c1 [Compound 61]	4790	> 10000	–	–
COc1cc(-c2nc(N[C@@H](C)c3ccc(F)cc3)nn2C)ccc1-n1cnc(C)c1 [Compound 62]	3240	> 10000	–	–
COc1cc(-c2ncn(-c3ccccc3C(F)(F)F)n2)ccc1-n1cnc(C)c1 [Compound 63]	1350	> 10000	–	–
COc1cc(-c2nc(N3C[C@@H](C)O[C@@H](C)C3)nn2C)ccc1-n1cnc(C)c1 [Compound 64]	> 10000	> 10000	–	–
COc1cc(-c2ncn(-c3cccc(C(F)(F)F)c3)n2)ccc1-n1cnc(C)c1 [Compound 65]	2240	> 10000	–	–
COc1cc(-c2nc(-c3ccccc3C(F)(F)F)n(C(C)C)n2)ccc1-n1cnc(C)c1 [Compound 67]	200	9550	–	–
COc1cc(-c2n[nH]c(C(CCCCCl)c3ccccc3C(F)(F)F)n2)ccc1-n1cnc(C)c1 (centres unmarked) [Compound 70]	309	> 10000	–	–
COc1cc(-c2nc(N3CCOCC3)n(-c3ccc(F)cc3)n2)ccc1-n1cnc(C)c1 [Compound 71]	–	–	1150	> 10000
COc1cc(-c2nc(-c3cc(C(F)(F)F)ccc3C)n(C)n2)ccc1-n1cnc(C)c1 [Compound 72]	288	> 10000	–	–
COc1cc(-c2nc(-c3cc(C(F)(F)F)ccc3C)n(C(C)C)n2)ccc1-n1cnc(C)c1 [Compound 73]	200	9550	–	–
COc1cc(-c2nc(N3CCC(c4ccccc4)CC3)n(C)n2)ccc1-n1cnc(C)c1 [Compound 77]	145	8320	–	–
COc1cc(-c2nc(N3CCCC(c4ccccc4)C3)n(C(C)C)n2)ccc1-n1cnc(C)c1 (centres unmarked) [Compound 79]	–	–	36	6610
COc1cc(-c2nc(N3CCc4ccccc4C3)n(C)n2)ccc1-n1cnc(C)c1 [Compound 81]	224	> 10000	–	–

SMILES	IC50 (Aβ42) [nM]	IC50 (Aβtotal) [nM]	IC50 (Aβ42; Homo sapiens) [nM]	IC50 (Aβtotal; Homo sapiens) [nM]
COc1cc(-c2nc(N3CCc4ccccc4C3)n(C(C)C)n2)ccc1-n1cnc(C)c1 [Compound 82]	603	7760	–	–
COc1cc(-c2nc(-c3ccc(F)cc3)n(C(C)C)n2)ccc1-n1cnc(C)c1 [Compound 83]	257	> 10000	–	–
COc1cc(-c2nc(-c3ccccc3Cl)n(CC3CC3)n2)ccc1-n1cnc(C)c1 [Compound 85]	309	> 10000	–	–
COc1cc(-c2nc(-c3ccccc3Cl)n(CC(F)(F)F)n2)ccc1-n1cnc(C)c1 [Compound 86]	195	> 10000	–	–
COCCn1nc(-c2ccc(-n3cnc(C)c3)c(OC)c2)nc1-c1ccccc1Cl [Compound 87]	759	> 10000	–	–
COc1cc(-c2nc(-c3cc(Cl)ccc3C)n(C)n2)ccc1-n1cnc(C)c1 [Compound 88]	209	> 10000	–	–
COc1cc(-c2nc(C(C)(O)c3cccc(C(F)(F)F)c3)n(C(C)C)n2)ccc1-n1cnc(C)c1 (centres unmarked) [Compound 89]	–	–	501	7940
COc1cc(-c2nc(C3(c4cc(C(F)(F)F)ccc4F)CC3)n(C)n2)ccc1-n1cnc(C)c1 [Compound 90]	562	8910	–	–
COc1cc(-c2nc(C(=O)c3cccc(C(F)(F)F)c3)n(C(C)C)n2)ccc1-n1cnc(C)c1 [Compound 91]	–	–	2340	> 10000
CNc1nc(-c2ccc(-n3cnc(C)c3)c(OC)n2)nn1-c1cccc(C(F)(F)F)c1 [Compound 92]	933	> 10000	–	–
CNc1nc(-c2ccc(-n3cnc(C)c3)c(OC)c2)nn1-c1cccc(C(F)(F)F)c1 [Compound 93]	–	–	282	> 10000
COc1cc(-c2nc(NC3CCCCC3)n(C)n2)ccc1-n1cnc(C)c1 [Compound 94]	871	> 10000	–	–
COc1cc(-c2nc(NC3CCCC(C(F)(F)F)C3)n(C)n2)ccc1-n1cnc(C)c1 (centres unmarked) [Compound 95]	912	> 10000	–	–
COc1cc(-c2nc(NC3CCCC(C(F)(F)F)C3)n(C)n2)ccc1-n1cnc(C)c1 (centres unmarked) [Compound 96]	339	> 10000	–	–
Cc1cn(-c2ccc(-c3nc(Nc4ccccc4C)n(C)n3)cc2OC(F)(F)F)cn1 [Compound 98]	288	> 10000	–	–
COc1cc(-c2nc(Nc3ccccc3Cl)n(C)n2)ccc1-n1cnc(C)c1 [Compound 101]	41	> 10000	–	–
COc1cc(-c2nc(Nc3ccccc3Br)n(C)n2)ccc1-n1cnc(C)c1 [Compound 102]	56	> 10000	–	–
COc1cc(-c2nc(Nc3cccc(Cl)c3)n(C)n2)ccc1-n1cnc(C)c1 [Compound 103]	36	6310	–	–
COc1cc(-c2nc(Nc3cccc(F)c3)n(C)n2)ccc1-n1cnc(C)c1 [Compound 104]	115	8320	–	–
COc1cc(-c2nc(Nc3ccc(F)cc3)n(C)n2)ccc1-n1cnc(C)c1 [Compound 106]	132	> 10000	–	–
COc1nc(-c2nc(Nc3ccccc3F)n(C)n2)ccc1-n1cnc(C)c1 [Compound 107]	148	> 10000	–	–
COc1cc(-c2nc(Nc3ccc(Cl)cc3)n(C)n2)ccc1-n1cnc(C)c1 [Compound 108]	151	7760	–	–
COc1cc(-c2nc(Nc3ccc(F)cc3Cl)n(C)n2)ccc1-n1cnc(C)c1 [Compound 109]	117	> 10000	–	–
COc1cc(-c2nc(Nc3cc(F)ccc3F)n(C)n2)ccc1-n1cnc(C)c1 [Compound 110]	91	> 10000	–	–
